# According to article PMC10914731, “Homo-BacPROTAC-induced degradation of ClpC1 as a strategy against drug-resistant mycobacteria” (Nature Communications, 2024):
# “And” between values parts separate entries of the source, which are not always exact repeats. Identical values can stand only once. Like-named read-outs stand apart in the source and are kept apart here. *1 amine or outer side, *2 acyl side, *3 side chain or, on linkers, in order; H or OH if unused. Where a SMILES comes first, the peptide text is derived from it. [ ]: non-standard residue; d: D form. X1 = C#CCn1cc(C[C@H](N[*:1])C(=O)[*:2])c2ccccc21; NMeLeu(5-OH,4R) = CN[C@@H](C[C@@H](C)CO)C(=O)O; Phe(βR-OMe) = CO[C@H](c1ccccc1)[C@H](N)C(=O)O; NMeL = CN[C@@H](CC(C)C)C(=O)O
# How the values were obtained:
# in vitro = details: human
# Procedure, shortened: (§1)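 Values are bidirectional Caco-2 apparent permeabilities, P(A−B) and P(B−A), given in 10^-6 cm s-1. The efflux ratio divides P(B−A) by P(A−B), and intrinsic permeability averages the two directions.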
# Caco-2 monolayers = assay: in vitro; details: human, Caco-2
# Procedure, shortened: as §1
# [1] = format: in vitro ADME, Rat; details: rat, pH 7.4
# [2] = format: in vitro ADME, Human; details: human, pH 7.4
# Mtb (moxR) FNDR-M1 = assay: microbe, parasite or virus in culture; format: cell-based
# Acinetobacter baumannii = assay: MIC ESKAPES panel, Acinetobacter baumannii; format: cell-based
# Method: (§2) Minimum inhibitory concentration (MIC) against ESKAPES panel of Gram positive and Gram negative pathogens (Enterococcus faecium, Staphylococcus aureus, Klebsiella pneumoniae, Acinetobacter baumannii, Pseudomonas aeruginosa, Enterobacter cloacae and Salmonella typhimurium [ESKAPES panel]) were determined at the FNDR by the standard broth dilution method [CLSI, M100]. […] Mueller Hinton broth (MHB) medium was used to grow ESKAPES panel strains. The individual cultures were added as 200 μL (inoculum of 3–7 × 10^5 cfu/ml) to the respective assay plates in each well to all columns, except the media control (200 μL of medium). […] The assay plates were incubated at 37 °C, and the results were noted on the 2nd day as turbidometric readout. The clear wells indicated inhibition of growth, while the turbid wells indicated uninhibited growth.
# Enterobacter cloacae = assay: MIC ESKAPES panel, Enterobacter cloacae; format: cell-based
# Method: as §2
# Salmonella typhimurium = assay: MIC ESKAPES panel, Salmonella typhimurium; format: cell-based
# Method: as §2
# in vivo = format: in vivo, BALB/cAnNCrl mice
# Method: The in-life experimental procedures were conducted in strict compliance with German and European animal welfare legislation in an AAALAC-accredited facility. Male BALB/cAnNCrl mice (Charles River Laboratories Research Models and Services, 97633 Sulzfeld, Germany) were used. Animals were 9 weeks old at dosing with a body weight of 21.6–24.3 g. Animals were delivered free of pathogens according to FELASA recommendations with a health certificate provided by the breeder. Upon receipt, the state of health and sex was checked. Animals acclimatized for at least 5 days before the commencement of the in-life phase. During acclimation, animals were group-housed in individually ventilated cages, on birch wood granulate bedding with species-specific enrichment (nesting material, mouse igloo, gnawing wood). During experimental conduct, animals were housed in conventional cages with elevated grid floors. Grid floor was used to avoid contamination with test item material excreted via urine and feces and subsequent reuptake during fur grooming. No bedding and enrichment were provided except a cage divider, which can be used as a shelter. Animals always had unlimited access to food and water and received a pelleted, total pathogen-free maintenance diet and tap drinking water, sterilized by filter.
# On the day before dosing, test item(s) were suspended in kleptose (20% in WFI) under continuous stirring (3.0 mg/ml). Following 2 min vortexing and 1 h stirring, the formulation was sonicated at 60 °C for 30 min and stirred at ambient temperature overnight. Before dosing, the formulation was vortexed for 2 min followed by ultraturrax treatment for 2 min.
# Male BALB/cAnNCrl mice (n = 3 per test item and administration route) received a bolus dose of the formulated test item(s) (1 mg/kg iv, 30 mg/kg po) at t = 0 h, and whole blood samples were collected subsequently (35 µl at 0.1 (iv) / 0.25 (po), 0.5, 1, 2, 4, 6 h; 600 µl at sacrifice after 24 h). Animals were euthanized by exsanguination in deep isoflurane anesthesia. Whole blood samples were immediately stored on ice at about 4 °C. Plasma was separated by centrifugation at approximately 10,000 × g for 5 m at +4 °C. Centrifugation of each blood sample was started within 10 m after collection. A single aliquot of at least 15 µL of plasma was prepared and immediately stored at −20 ± 5 °C.
# Sample proteins were precipitated with ACN (1 + 12, v/v) containing internal standard, and supernatants analyzed by quantitative UPLC-MS/MS: Phenomenex Luna Omega C18, 2.1 × 50 mm, 1.6 µm, 40 °C, gradient between 10% - 90% ACN with 0.1% formic acid. LogD determination: Lipophilicity of the test items, expressed as chromLogD7.5, was assessed by measuring their chromatographic retention times on C18-material. The chromatographic retention versus logD7.5 values of a series of thirteen n-alkan-2-ones (2-butanone – 2-hexadecanone) served as lipophilicity calibration.
# [3] = Gram-Negative Bacteria, replicates 1-3
# [4] = oral gavage 30 mg/kg, mice, Mean, BLOQ <1.00 nmol/L
# [5] = oral gavage, individual animals 1-3
# [6] = oral gavage, individual animals 1-3, BLOQ <1.00 nmol/L
smiles,measurement,setting,value
"C#CCn1cc(C[C@@H]2NC(=O)[C@H](C(C)C)NC(=O)[C@H](CC(C)C)N(C)C(=O)[C@H](C(C)C)NC(=O)[C@H]([C@H](OC)c3ccccc3)NC(=O)[C@H](C)NC(=O)[C@H](C[C@@H](C)CO)N(C)C2=O)c2ccccc21 [Compound 5] (cyclo(A[Phe(βR-OMe)]V[NMeL]V[X1][NMeLeu(5-OH,4R)]))",efflux ratio,in vitro; Caco-2,20.4
same,Papp A→B,"in vitro; Caco-2, CACO permeability PEAB",0.95 ×10⁻⁶ cm/s
same,Papp B→A,"in vitro; Caco-2, CACO permeability PEBA",19 ×10⁻⁶ cm/s
same,Papp A→B,"in vitro; Caco-2, Caco-2 permeability P (A-B)",1.1 ×10⁻⁶ cm/s
same,Papp B→A,"in vitro; Caco-2, Caco-2 permeability P (B-A)",23 ×10⁻⁶ cm/s
same,Caco-2 Int. Perm,Caco-2 monolayers,12.1
same,Influence of N-methylation on permeability,Caco-2 monolayers,9.3
same,Hepatocyte Rat,[1],51 %Qh
same,Hepatocyte Stability Rat QH,[1],51.066%
same,Hepatocyte Human,[2],12 %Qh
same,Hepatocyte Stability Human QH,[2],12.386%
same,MIC,"Mtb (moxR) FNDR-M1; M. tuberculosis FNDR-M1, single well replicates",0.391 µM and 0.781 µM
same,MIC,"Mtb (moxR) FNDR-M1; Mycobacterium tuberculosis, M. tuberculosis FNDR-M1, single well replicates",0.781 µM
same,MIC,"Mtb (moxR) FNDR-M1; Mycobacterium tuberculosis, Mtb (moxR) FNDR-M1, mean ± SD, n = 3 well replicates",0.7 ± 0.2 µM
same,MIC,"Acinetobacter baumannii; Gram negative, n = 3 well replicates, read-out: MIC Acinetobacter baumanii",> 50 µM
same,MIC,"Acinetobacter baumannii; Gram-Negative Bacteria, replicates 1-3, read-out: MIC Acinetobacter baumannii",> 50 µM and > 47 µg/mL
same,MIC,"Enterobacter cloacae; Enterobacter cloacae, Gram negative, n = 3 well replicates",> 50 µM
same,MIC,"Enterobacter cloacae; Enterobacter cloacae, Gram-Negative Bacteria, replicates 1-3",> 47 µg/mL
same,MIC,Enterobacter cloacae; [3],>50 µM
same,MIC,Salmonella typhimurium; [3],>50 µM
same,MIC,"Salmonella typhimurium; Salmonella enterica, TYPHIMURIUM, Gram negative, n = 3 well replicates",> 50 µM
same,MIC,"Salmonella typhimurium; Salmonella enterica, TYPHIMURIUM, Gram-Negative Bacteria, replicates 1-3",> 47 µg/mL
same,half-life,"in vivo; male, BALB/cAnNCrl, mouse, in vivo, po, […], oral gavage, individual animals 1-3",36.5 min
same,tmax,"in vivo; male, BALB/cAnNCrl, mouse, in vivo, po, […], oral gavage, individual animals 1-3, read-out: tmax",60 min
same,half-life,"in vivo; male, BALB/cAnNCrl, mouse, in vivo, po, […], oral gavage, mice, Mean",34.7 min
same,tmax,"in vivo; male, BALB/cAnNCrl, mouse, in vivo, po, […], oral gavage, mice, Mean, read-out: tmax",100 min
same,Plasma concentration 24 h,"in vivo; mouse, in vivo, po",BLOQ
same,Plasma concentration 0.5 h,in vivo; [4],11.7 nM
same,Plasma concentration 1 h,in vivo; [4],15.5 nM
same,Plasma concentration 2 h,in vivo; [4],18.0 nM
same,Plasma concentration 4 h,in vivo; [4],1.62 nM
same,Plasma concentration 6 h,in vivo; [4],1.76 nM
same,Plasma concentration 24 h,in vivo; [4],4.22 nM
same,Plasma concentration […],in vivo; [4],12.2 nM
same,AUC0-inf/Dose,in vivo; [5],3.14 h*nM/nmol/kg and 1.57 h*nM/nmol/kg and 1.80 h*nM/nmol/kg
same,AUC0-t/Dose,in vivo; [5],3.02 h*nM/nmol/kg and 1.53 h*nM/nmol/kg and 1.74 h*nM/nmol/kg
same,Cmax/Dose,in vivo; [5],0.480 nM/nmol/kg and 0.558 nM/nmol/kg and 0.684 nM/nmol/kg
same,t1/2,in vivo; [5],34.6 min and 33.1 min
same,tmax,in vivo; [5],120 min
same,Plasma concentration 0.5 h,in vivo; [6],13.0 nM and 10.7 nM and 11.4 nM
same,Plasma concentration 1 h,in vivo; [6],15.3 nM and 15.7 nM and 15.5 nM
same,Plasma concentration 2 h,in vivo; [6],14.5 nM and 17.8 nM and 21.8 nM
same,Plasma concentration 4 h,in vivo; [6],1.49 nM and 1.61 nM and 1.76 nM
same,Plasma concentration 6 h,in vivo; [6],1.54 nM and 1.59 nM and 2.14 nM
same,Plasma concentration 24 h,in vivo; [6],4.22 nM
same,Plasma concentration […],in vivo; [6],14.2 nM and 11.7 nM and 10.6 nM
same,BA,"in vivo; oral gavage, mice (compound 12: from Animal 2 only; compound 6: maximum potential value)",1.2%
same,AUC0-inf/Dose,"in vivo; oral gavage, mice, Mean",2.17 h*nM/nmol/kg
same,Cmax/Dose,"in vivo; oral gavage, mice, Mean",0.574 nM/nmol/kg
same,AUC0-t/Dose,"in vivo; oral gavage, mice, Mean (compound 6: maximum potential value with 1 nM for each time point)",2.10 h*nM/nmol/kg
